In patent US12077503B2, “Substituted cyclic amides and their use as herbicides” (FMC CORPORATION, priority 2015, dated 2024):

Key:
Assay type in all cases: in vivo
[1] = system: barnyardgrass (Echinochloa crus-galli); experiment: Test G Pre-Emergence Protocol; settings: Echinochloa crus-galli, pre-emergence, 312 h, evaluated after 13 days; for pest or weed control at 15.625 g/ha: 15.625 g ai/ha; for pest or weed control at 15.625 g/ha / pest or weed control at 250 g/ha: read-out: Barnyardgrass damage rating (100=total damage to plant; 0=no damage to plant); for pest or weed control at 62.5 g/ha: 62.5 g ai/ha, 100=total damage to plant, 0=no damage to plant, read-out: Barnyardgrass damage rating; for pest or weed control at 250 g/ha: 250 g ai/ha
Outline: (§1)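 Herbicidal effect was rated 13 days post-application on a scale where 100 equals total damage. Spraying took place the day after sowing, using 15.625, 62.5 or 250 g/ha of compound in a 50:50 acetone/water solution with 0.5% Tween 20.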

corn (Zea mays) [2] = experiment: Test G Pre-Emergence Protocol; settings: Zea mays, pre-emergence, 312 h, evaluated after 13 days; for plant injury at 15.625 g/ha: 15.625 g ai/ha; for plant injury at 15.625 g/ha / plant injury at 250 g/ha: read-out: Corn damage rating (100=total damage to plant; 0=no damage to plant); for plant injury at 62.5 g/ha: 62.5 g ai/ha, 100=total damage to plant, 0=no damage to plant, read-out: Corn damage rating; for plant injury at 250 g/ha: 250 g ai/ha
Outline: as §1

[3] = system: giant foxtail (Setaria faberi); experiment: Test G Pre-Emergence Protocol; settings: Setaria faberi, pre-emergence, 312 h, evaluated after 13 days; for pest or weed control at 15.625 g/ha: 15.625 g ai/ha; for pest or weed control at 15.625 g/ha / pest or weed control at 250 g/ha: read-out: Foxtail, Giant damage rating (100=total damage to plant; 0=no damage to plant); for pest or weed control at 62.5 g/ha: 62.5 g ai/ha, 100=total damage to plant, 0=no damage to plant, read-out: Foxtail, Giant damage rating; for pest or weed control at 250 g/ha: 250 g ai/ha
Outline: as §1

[4] = system: ivy-leaved morning glory (Ipomoea hederacea); experiment: Test G Pre-Emergence Protocol; settings: Ipomoea, pre-emergence, 312 h, evaluated after 13 days; for pest or weed control at 15.625 g/ha: 15.625 g ai/ha; for pest or weed control at 15.625 g/ha / pest or weed control at 250 g/ha: read-out: Morningglory, Ivy-leaved damage rating (100=total damage to plant; 0=no damage to plant); for pest or weed control at 62.5 g/ha: 62.5 g ai/ha, 100=total damage to plant, 0=no damage to plant, read-out: Morningglory, Ivy-leaved damage rating; for pest or weed control at 250 g/ha: 250 g ai/ha
Outline: as §1

[5] = system: redroot pigweed (Amaranthus retroflexus); experiment: Test G Pre-Emergence Protocol; settings: Amaranthus retroflexus, pre-emergence, 312 h, evaluated after 13 days; for pest or weed control at 15.625 g/ha: 15.625 g ai/ha; for pest or weed control at 15.625 g/ha / pest or weed control at 250 g/ha: read-out: Pigweed, Redroot damage rating (100=total damage to plant; 0=no damage to plant); for pest or weed control at 62.5 g/ha: 62.5 g ai/ha, 100=total damage to plant, 0=no damage to plant, read-out: Pigweed, Redroot damage rating; for pest or weed control at 250 g/ha: 250 g ai/ha
Outline: as §1

[6] = system: velvetleaf (Abutilon theophrasti); experiment: Test G Pre-Emergence Protocol; settings: Abutilon theophrasti, pre-emergence, 312 h, evaluated after 13 days; for pest or weed control at 15.625 g/ha: 15.625 g ai/ha; for pest or weed control at 15.625 g/ha / pest or weed control at 250 g/ha: read-out: Velvetleaf damage rating (100=total damage to plant; 0=no damage to plant); for pest or weed control at 62.5 g/ha: 62.5 g ai/ha, 100=total damage to plant, 0=no damage to plant, read-out: Velvetleaf damage rating; for pest or weed control at 250 g/ha: 250 g ai/ha
Outline: as §1

[7] = system: barnyardgrass (Echinochloa crus-galli); experiment: Test G Post-Emergence Protocol; settings: Echinochloa crus-galli, post-emergence, 312 h, read-out: Barnyardgrass damage rating; for pest or weed control at 15.625 g/ha: 15.625 g ai/ha, evaluated after 13 days (100=total damage to plant; 0=no damage to plant); for pest or weed control at 62.5 g/ha: 62.5 g ai/ha; for pest or weed control at 62.5 g/ha / pest or weed control at 250 g/ha: evaluated after 13 days, 100=total damage to plant, 0=no damage to plant; for pest or weed control at 250 g/ha: 250 g ai/ha
Outline: (§2)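 Sow in soil; grow 8 d (24/16 °C, 14 h light, 65% humidity); spray 15.625/62.5/250 g/ha in acetone:water 50:50 + 0.5% Tween 20; grow on, water twice daily; score damage 0–100 at 13 d.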

corn (Zea mays) [8] = experiment: Test G Post-Emergence Protocol; settings: Zea mays, post-emergence, 312 h, read-out: Corn damage rating; for plant injury at 15.625 g/ha: 15.625 g ai/ha, evaluated after 13 days (100=total damage to plant; 0=no damage to plant); for plant injury at 62.5 g/ha: 62.5 g ai/ha; for plant injury at 62.5 g/ha / plant injury at 250 g/ha: evaluated after 13 days, 100=total damage to plant, 0=no damage to plant; for plant injury at 250 g/ha: 250 g ai/ha
Outline: as §2

[9] = system: giant foxtail (Setaria faberi); experiment: Test G Post-Emergence Protocol; settings: Setaria faberi, post-emergence, 312 h, read-out: Foxtail, Giant damage rating; for pest or weed control at 15.625 g/ha: 15.625 g ai/ha, evaluated after 13 days (100=total damage to plant; 0=no damage to plant); for pest or weed control at 62.5 g/ha: 62.5 g ai/ha; for pest or weed control at 62.5 g/ha / pest or weed control at 250 g/ha: evaluated after 13 days, 100=total damage to plant, 0=no damage to plant; for pest or weed control at 250 g/ha: 250 g ai/ha
Outline: as §2

[10] = system: ivy-leaved morning glory (Ipomoea hederacea); experiment: Test G Post-Emergence Protocol; settings: Ipomoea, post-emergence, 312 h, read-out: Morningglory, Ivy-leaved damage rating; for pest or weed control at 15.625 g/ha: 15.625 g ai/ha, evaluated after 13 days (100=total damage to plant; 0=no damage to plant); for pest or weed control at 62.5 g/ha: 62.5 g ai/ha; for pest or weed control at 62.5 g/ha / pest or weed control at 250 g/ha: evaluated after 13 days, 100=total damage to plant, 0=no damage to plant; for pest or weed control at 250 g/ha: 250 g ai/ha
Outline: as §2

[11] = system: redroot pigweed (Amaranthus retroflexus); experiment: Test G Post-Emergence Protocol; settings: Amaranthus retroflexus, post-emergence, 312 h, read-out: Pigweed, Redroot damage rating; for pest or weed control at 15.625 g/ha: 15.625 g ai/ha, evaluated after 13 days (100=total damage to plant; 0=no damage to plant); for pest or weed control at 62.5 g/ha: 62.5 g ai/ha; for pest or weed control at 62.5 g/ha / pest or weed control at 250 g/ha: evaluated after 13 days, 100=total damage to plant, 0=no damage to plant; for pest or weed control at 250 g/ha: 250 g ai/ha
Outline: as §2

[12] = system: velvetleaf (Abutilon theophrasti); experiment: Test G Post-Emergence Protocol; settings: Abutilon theophrasti, post-emergence, 312 h, read-out: Velvetleaf damage rating; for pest or weed control at 15.625 g/ha: 15.625 g ai/ha, evaluated after 13 days (100=total damage to plant; 0=no damage to plant); for pest or weed control at 62.5 g/ha: 62.5 g ai/ha; for pest or weed control at 62.5 g/ha / pest or weed control at 250 g/ha: evaluated after 13 days, 100=total damage to plant, 0=no damage to plant; for pest or weed control at 250 g/ha: 250 g ai/ha
Outline: as §2

Structure (SMILES) | pest or weed control at 15.625 g/ha [1] [%] | pest or weed control at 62.5 g/ha [1] [%] | pest or weed control at 250 g/ha [1] [%] | plant injury at 15.625 g/ha (corn (Zea mays) [2]) [%] | plant injury at 62.5 g/ha (corn (Zea mays) [2]) [%] | plant injury at 250 g/ha (corn (Zea mays) [2]) [%] | pest or weed control at 15.625 g/ha [3] [%] | pest or weed control at 62.5 g/ha [3] [%] | pest or weed control at 250 g/ha [3] [%] | pest or weed control at 15.625 g/ha [4] [%] | pest or weed control at 62.5 g/ha [4] [%] | pest or weed control at 250 g/ha [4] [%] | pest or weed control at 15.625 g/ha [5] [%] | pest or weed control at 62.5 g/ha [5] [%] | pest or weed control at 250 g/ha [5] [%] | pest or weed control at 15.625 g/ha [6] [%] | pest or weed control at 62.5 g/ha [6] [%] | pest or weed control at 250 g/ha [6] [%] | pest or weed control at 15.625 g/ha [7] [%] | pest or weed control at 62.5 g/ha [7] [%] | also measured
CN1C[C@H](c2cccc(C(F)(F)F)c2)[C@@H](C(=O)Nc2cnccc2S(C)(=O)=O)C1=O (racemic) [Compound 1747] | 0 | 0 | 80 | 0 | 0 | 0 | 0 | 10 | 70 | 0 | 0 | 0 | 0 | 10 | 10 | 0 | 0 | 0 | 0 | 60 | pest or weed control at 250 g/ha [7]: 80%; plant injury at 15.625 g/ha (corn (Zea mays) [8]): 0%; plant injury at 62.5 g/ha (corn (Zea mays) [8]): 0%; plant injury at 250 g/ha (corn (Zea mays) [8]): 30%; pest or weed control at 15.625 g/ha [9]: 10%; pest or weed control at 62.5 g/ha [9]: 60%; pest or weed control at 250 g/ha [9]: 80%; pest or weed control at 15.625 g/ha [10]: 0%; pest or weed control at 62.5 g/ha [10]: 20%; pest or weed control at 250 g/ha [10]: 50%; pest or weed control at 15.625 g/ha [11]: 10%; pest or weed control at 62.5 g/ha [11]: 20%; pest or weed control at 250 g/ha [11]: 20%; pest or weed control at 15.625 g/ha [12]: 0%; pest or weed control at 62.5 g/ha [12]: 0%; pest or weed control at 250 g/ha [12]: 10%
COc1ncc([C@@H]2CN(C)C(=O)[C@H]2C(=O)Nc2cccc(F)c2F)cc1Cl (racemic) [Compound 1755] | 70 | 80 | 90 | 20 | 60 | 80 | 80 | 90 | 90 | 0 | 20 | 80 | 0 | 40 | 70 | 0 | 20 | 70 | 60 | 70 | pest or weed control at 250 g/ha [7]: 80%; plant injury at 15.625 g/ha (corn (Zea mays) [8]): 10%; plant injury at 62.5 g/ha (corn (Zea mays) [8]): 80%; plant injury at 250 g/ha (corn (Zea mays) [8]): 80%; pest or weed control at 15.625 g/ha [9]: 70%; pest or weed control at 62.5 g/ha [9]: 80%; pest or weed control at 15.625 g/ha [10]: 60%; pest or weed control at 62.5 g/ha [10]: 70%; pest or weed control at 250 g/ha [10]: 70%; pest or weed control at 15.625 g/ha [11]: 10%; pest or weed control at 62.5 g/ha [11]: 20%; pest or weed control at 250 g/ha [11]: 30%; pest or weed control at 15.625 g/ha [12]: 10%; pest or weed control at 62.5 g/ha [12]: 30%; pest or weed control at 250 g/ha [12]: 60%
CN1C[C@H](c2ccc(C(F)(F)F)cc2)[C@@H](C(=O)Nc2cccc3ccsc23)C1=O (racemic) [Compound 1757] | 0 | 10 | 10 | 0 | 0 | 0 | 0 | 30 | 70 | 0 | 0 | 0 | 0 | 0 | 0 | 0 | 0 | 0 | 0 | 10 | pest or weed control at 250 g/ha [7]: 30%; plant injury at 15.625 g/ha (corn (Zea mays) [8]): 0%; plant injury at 62.5 g/ha (corn (Zea mays) [8]): 0%; plant injury at 250 g/ha (corn (Zea mays) [8]): 0%; pest or weed control at 15.625 g/ha [9]: 0%; pest or weed control at 62.5 g/ha [9]: 20%; pest or weed control at 250 g/ha [9]: 60%; pest or weed control at 15.625 g/ha [10]: 0%; pest or weed control at 62.5 g/ha [10]: 0%; pest or weed control at 250 g/ha [10]: 10%; pest or weed control at 15.625 g/ha [11]: 0%; pest or weed control at 62.5 g/ha [11]: 0%; pest or weed control at 250 g/ha [11]: 0%; pest or weed control at 15.625 g/ha [12]: 0%; pest or weed control at 62.5 g/ha [12]: 0%; pest or weed control at 250 g/ha [12]: 0%
